This note sets out measurements from US20240327381A1, “Compounds and Compositions for Selective Degradation of Engineered Proteins” (Celgene Corporation, priority 2023, published 2024).

Holding throughout (format): cell-based
The target of test [1] is T1, IKZF1 ZNF2_ZNF3 Q1F degron-tagged CD19 CAR (Homo sapiens, UniProt Q13422, Q146F).
T1 construct: ZNF2_ZNF3 Q1F degron (GERPFFCNQCGASFTQKGNLLRHIKLHSGEKPFKCHLCNYACRRRDALTGHLRTHS); fused on or other part: anti-CD19 scFv, CD28 transmembrane domain, 4-1BB costimulatory domain, CD3 zeta signaling domain (the CAR that carries the degron), and Nluc
T1 sequence (Q13422 whole entry Q146F, the tested form may be a part): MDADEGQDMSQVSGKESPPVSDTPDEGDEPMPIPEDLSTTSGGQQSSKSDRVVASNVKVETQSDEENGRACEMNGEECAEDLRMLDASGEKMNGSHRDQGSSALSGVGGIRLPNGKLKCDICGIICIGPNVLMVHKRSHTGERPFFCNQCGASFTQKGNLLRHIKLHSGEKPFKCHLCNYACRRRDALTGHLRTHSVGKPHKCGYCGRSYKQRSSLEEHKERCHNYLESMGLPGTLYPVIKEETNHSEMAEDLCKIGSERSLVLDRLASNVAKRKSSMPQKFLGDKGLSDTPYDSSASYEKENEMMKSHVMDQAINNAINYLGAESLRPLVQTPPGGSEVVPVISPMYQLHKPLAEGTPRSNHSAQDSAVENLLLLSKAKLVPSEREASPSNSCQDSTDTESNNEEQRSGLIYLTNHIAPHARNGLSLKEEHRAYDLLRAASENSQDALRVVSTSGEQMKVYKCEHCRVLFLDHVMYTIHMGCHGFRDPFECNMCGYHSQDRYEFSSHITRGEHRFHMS
Nature of the test: Degradation of Q1F degron-tagged CD19 CAR in Jurkat cells (flow cytometry of CAR levels). The settings on record: for DC50: Jurkat cells expressing CD19 CAR tagged with IKZF1 ZNF2_ZNF3 Q1F, 18 hours at 37° C., CAR levels normalized to untreated cells, read-out: Q1F Jurkat IC50; for Dmax: read-out: Q1F Jurkat-YMax. The procedure, abridged: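 Jurkat cells were lentivirally transduced with an anti-CD19 scFv/CD28 TM/4-1BB/CD3ζ CAR tagged with an IKZF1 ZNF2_ZNF3 Q1F degron–Nluc, then treated with compound titrations for 18 h at 37 °C. CAR surface levels were stained (20 min, 4 °C), read by flow cytometry and normalised to untreated cells. EC50 came from a four-parameter logistic fit; Ymin is the minimum % CAR remaining.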

Test [2] addresses T2, Helios (Homo sapiens, UniProt Q9UKS7).
T2 construct: endogenous in cells; host or cells: Jurkat cells, CRISPR/Cas9 knock-in of HiBit at the IKZF2 locus
Nature of the test: Helios degradation in Jurkat/Helios/HiBit cells (Nano-Glo luminescence). The settings on record: 18 hr, read-out: Helios Jurkat Hibit IC50. The procedure, abridged: (§1)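 Jurkat cells carrying CRISPR-knocked-in C-terminal HiBit-tagged endogenous IKZF2 were treated with compound in DMEM/10% FCS (10,000 cells/well) for 18 h at 37 °C. HiBit signal was read by Nano-Glo luminescence after 30 min at RT. EC50 for degradation came from a four-parameter logistic fit, with Ymax as % protein degraded.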

Test [3] addresses T3, Helios (Homo sapiens, UniProt Q96SW2+Q9UKS7).
T3 construct: endogenous in cells; host or cells: Jurkat cells, CRISPR/Cas9 knock-in of HiBit at the IKZF2 locus
The test is described as above. The settings on record: for Helios Jurkat Hibit YMax: Ymax is the % protein degraded, 18 hr. The gist of the method: as §1

The mark [4] stands for this setting: Ymax is the % protein degraded, Jurkat cells expressing Q1F degron-tagged CD19 CAR, 18 hours.

Read-outs that look alike come from different tables or passages of the source.

T3 sequence (Q9UKS7 whole entry): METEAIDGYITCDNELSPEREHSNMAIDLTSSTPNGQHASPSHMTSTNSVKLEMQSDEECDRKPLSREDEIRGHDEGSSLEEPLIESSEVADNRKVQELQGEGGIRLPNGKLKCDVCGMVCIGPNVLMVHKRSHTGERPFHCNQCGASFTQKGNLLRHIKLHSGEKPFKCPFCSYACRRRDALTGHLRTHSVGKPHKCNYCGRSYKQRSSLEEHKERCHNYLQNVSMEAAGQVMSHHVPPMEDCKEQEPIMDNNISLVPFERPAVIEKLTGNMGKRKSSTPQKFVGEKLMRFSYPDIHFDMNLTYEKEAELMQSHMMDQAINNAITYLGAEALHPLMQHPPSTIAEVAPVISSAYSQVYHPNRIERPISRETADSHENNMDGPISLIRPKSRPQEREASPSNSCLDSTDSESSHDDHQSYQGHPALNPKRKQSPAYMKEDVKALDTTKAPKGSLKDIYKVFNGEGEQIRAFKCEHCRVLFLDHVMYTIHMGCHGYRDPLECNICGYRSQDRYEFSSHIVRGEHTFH
T3 sequence (Q96SW2 whole entry): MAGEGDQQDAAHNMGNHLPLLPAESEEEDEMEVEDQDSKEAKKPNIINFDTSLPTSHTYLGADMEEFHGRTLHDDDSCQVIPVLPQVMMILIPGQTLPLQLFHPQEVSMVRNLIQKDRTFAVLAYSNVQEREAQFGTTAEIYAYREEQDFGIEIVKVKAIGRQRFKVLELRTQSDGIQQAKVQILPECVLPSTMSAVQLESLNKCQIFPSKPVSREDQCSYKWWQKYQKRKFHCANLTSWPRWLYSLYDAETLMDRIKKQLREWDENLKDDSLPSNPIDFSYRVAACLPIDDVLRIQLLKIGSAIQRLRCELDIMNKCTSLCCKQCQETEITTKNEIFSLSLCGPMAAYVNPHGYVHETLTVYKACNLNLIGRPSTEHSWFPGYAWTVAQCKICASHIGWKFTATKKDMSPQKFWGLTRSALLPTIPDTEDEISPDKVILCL
T3 sequence (Q16531 whole entry partner): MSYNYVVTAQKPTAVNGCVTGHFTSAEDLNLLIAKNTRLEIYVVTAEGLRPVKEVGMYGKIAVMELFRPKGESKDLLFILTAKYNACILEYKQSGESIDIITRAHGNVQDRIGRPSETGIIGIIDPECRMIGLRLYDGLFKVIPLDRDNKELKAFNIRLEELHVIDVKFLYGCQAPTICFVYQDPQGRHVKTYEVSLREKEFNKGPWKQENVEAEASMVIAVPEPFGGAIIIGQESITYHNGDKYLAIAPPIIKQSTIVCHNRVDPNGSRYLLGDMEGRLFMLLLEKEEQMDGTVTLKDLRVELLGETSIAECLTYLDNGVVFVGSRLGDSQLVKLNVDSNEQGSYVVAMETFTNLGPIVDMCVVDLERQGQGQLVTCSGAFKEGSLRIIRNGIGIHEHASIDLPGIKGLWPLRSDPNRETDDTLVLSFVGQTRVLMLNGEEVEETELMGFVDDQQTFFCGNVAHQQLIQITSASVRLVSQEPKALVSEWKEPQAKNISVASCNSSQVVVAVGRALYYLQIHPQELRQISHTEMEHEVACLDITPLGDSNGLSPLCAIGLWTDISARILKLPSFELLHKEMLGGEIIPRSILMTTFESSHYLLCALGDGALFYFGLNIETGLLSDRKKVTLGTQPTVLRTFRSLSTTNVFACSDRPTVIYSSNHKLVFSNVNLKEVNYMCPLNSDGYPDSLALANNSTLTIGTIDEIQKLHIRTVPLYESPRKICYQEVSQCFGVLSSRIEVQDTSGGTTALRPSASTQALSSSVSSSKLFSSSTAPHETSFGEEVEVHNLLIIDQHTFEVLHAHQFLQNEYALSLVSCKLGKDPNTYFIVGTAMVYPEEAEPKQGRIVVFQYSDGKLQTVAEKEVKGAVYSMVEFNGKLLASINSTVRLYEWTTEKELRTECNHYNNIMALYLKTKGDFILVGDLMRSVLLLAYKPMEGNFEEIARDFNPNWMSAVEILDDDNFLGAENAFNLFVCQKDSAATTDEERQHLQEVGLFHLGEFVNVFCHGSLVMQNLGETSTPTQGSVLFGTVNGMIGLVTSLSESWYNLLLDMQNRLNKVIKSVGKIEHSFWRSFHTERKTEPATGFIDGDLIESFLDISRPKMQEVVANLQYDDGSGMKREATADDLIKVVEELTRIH
T2 sequence (Q9UKS7 whole entry): as the sequence (Q9UKS7 whole entry) above
T2 sequence (Q96SW2 whole entry, further chain): as the sequence (Q96SW2 whole entry) above
T2 sequence (Q16531 whole entry partner): as the sequence (Q16531 whole entry partner) above

In the case of `Cc1cc(-c2cc(F)c3c(c2)CN(C2CCC(=O)NC2=O)C3=O)nc(N)c1C` (stereo not drawn) [Compound 16, 3-(5-(6-amino-4,5-dimethylpyridin-2-yl)-7-fluoro-1-oxoisoindolin-2-yl)piperidine-2,6-dione], the DC50 in test [1] came to 0.00267 µM; at Helios [2] it was 0.012 µM. For the same compound, in test [1] (setting [4]), the Dmax is 92.9%. Moreover, the “Helios Jurkat Hibit YMax” value at Helios [3] amounted to 64.8253%.

Consider `CC1(C)Cc2cccc(CN3CCN(Cc4c(F)cc5c(c4F)CN(C4CCC(=O)NC4=O)C5=O)CC3)c2O1` (stereo not drawn) [Compound 75, 3-(5-((4-((2,2-dimethyl-2,3-dihydrobenzofuran-7-yl)methyl)piperazin-1-yl)methyl)-4,6-difluoro-1-oxoisoindolin-2-yl)piperidine-2,6-dione], for which the DC50 came to 0.00332 µM in test [1] and 0.0651 µM at Helios [2]. In test [1] (setting [4]), the Dmax worked out at 89%. Moreover, the “Helios Jurkat Hibit YMax” value at Helios [3] is 65.5325%.

For the compound `O=C1CCC(N2Cc3c(cc(F)c(C4(O)CCN(Cc5ccc(C(F)(F)F)cc5)CC4)c3F)C2=O)C(=O)N1` (stereo not drawn) [Compound 11, 3-(4,6-difluoro-5-(4-hydroxy-1-(4-(trifluoromethyl)benzyl)piperidin-4-yl)-1-oxoisoindolin-2-yl)piperidine-2,6-dione], the DC50 is 0.00491 µM in test [1] and at least 10 µM on Helios [3] (read-out: Helios Jurkat Hibit IC50, 18 hr). The Dmax in test [1] (setting [4]) came out at 83.5%.

As to `Cc1ccc(CN2CCC(c3c(F)cc4c(c3F)CN(C3CCC(=O)NC3=O)C4=O)CC2)cc1F` (stereo not drawn) [Compound 46, 3-(4,6-difluoro-5-(1-(3-fluoro-4-methylbenzyl)piperidin-4-yl)-1-oxoisoindolin-2-yl)piperidine-2,6-dione], the DC50 in test [1] was 0.000112 µM; at Helios [2], 6520 µM. The Dmax in test [1] (setting [4]) came to 91.8%. At Helios [3], the “Helios Jurkat Hibit YMax” value is given as 50.8729%.

`O=C1CCC(N2Cc3c(cc(F)c(C4CCN(Cc5ccc6[nH]ccc6c5)CC4)c3F)C2=O)C(=O)N1` (stereo not drawn) [Compound 61, 3-(5-(1-((1H-indol-5-yl)methyl)piperidin-4-yl)-4,6-difluoro-1-oxoisoindolin-2-yl)piperidine-2,6-dione]: the values for the DC50 (in test [1]; on Helios [2]) were 0.000204 µM and 0.152 µM, respectively. For the same compound, the Dmax in test [1] (setting [4]) worked out at 93.4%. For the same compound, the “Helios Jurkat Hibit YMax” value at Helios [3] is 59.5442%.

As to `O=C1CCC(N2Cc3c(cc(F)c(C4CCN(Cc5ccc6[nH]ncc6c5)CC4)c3F)C2=O)C(=O)N1` (stereo not drawn) [Compound 63, 3-(5-(1-((1H-indazol-5-yl)methyl)piperidin-4-yl)-4,6-difluoro-1-oxoisoindolin-2-yl)piperidine-2,6-dione], the DC50 came to 0.000103 µM in test [1] and 3.31 µM on Helios [2]. In addition, the Dmax in test [1] (setting [4]) stood at 93%. Besides, the “Helios Jurkat Hibit YMax” value on Helios [3] was 55.0199%.

On to `Cc1cc(Br)cnc1CN1CCC(c2c(F)cc3c(c2F)CN(C2CCC(=O)NC2=O)C3=O)CC1` (stereo not drawn) [Compound 48, 3-(5-(1-((5-bromo-3-methylpyridin-2-yl)methyl)piperidin-4-yl)-4,6-difluoro-1-oxoisoindolin-2-yl)piperidine-2,6-dione], for which the DC50 in test [1] was 0.00224 µM; at Helios [2], at least 10 µM. For the same compound, in test [1] (setting [4]), the Dmax is 87.8%.

On to `O=C1CCC(N2Cc3cc(C4CCN(Cc5ccc(C(F)(F)F)cc5)CC4)c(F)cc3C2=O)C(=O)N1` (stereo not drawn) [Compound 85, 3-(6-fluoro-1-oxo-5-(1-(4-(trifluoromethyl)benzyl)piperidin-4-yl)isoindolin-2-yl) piperidine-2,6-dione], for which the DC50 is 0.00153 µM in test [1] and at least 10 µM at Helios [2]. For the same compound, in test [1] (Jurkat, 18 h), the Dmax turned out to be 89.3%.

In the case of `COCCN1CCC(c2c(F)cc3c(c2F)CN(C2CCC(=O)NC2=O)C3=O)CC1` (stereo not drawn) [Compound 124, 3-(4,6-difluoro-5-(1-(2-methoxyethyl)piperidin-4-yl)-1-oxoisoindolin-2-yl)piperidine-2,6-dione], the DC50 was 0.011 µM in test [1] and at least 10 µM on Helios [2]. Further, in test [1] (setting [4]), the Dmax is 76.7%.

Regarding `O=C1CCC(N2Cc3c(cc(F)c(C4CCN(Cc5nc6ccccc6s5)CC4)c3F)C2=O)C(=O)N1` (stereo not drawn) [Compound 58, 3-(5-(1-(benzo[d]thiazol-2-ylmethyl)piperidin-4-yl)-4,6-difluoro-1-oxoisoindolin-2-yl)piperidine-2,6-dione], the DC50 is 0.0107 µM in test [1] and at least 10 µM on Helios [2]. For the same compound, the Dmax in test [1] (setting [4]) was 86.3%.

For `O=C1CCC(N2Cc3cc(C4CCN(Cc5ccc6ncsc6c5)CC4)c(F)cc3C2=O)C(=O)N1` (stereo not drawn) [Compound 81, 3-(5-(1-(benzo[d]thiazol-6-ylmethyl)piperidin-4-yl)-6-fluoro-1-oxoisoindolin-2-yl) piperidine-2,6-dione], the DC50 was 0.00306 µM in test [1] and at least 10 µM on Helios [2]. The Dmax in test [1] (setting [4]) amounted to 93%.

As to `O=C1CCC(N2Cc3c(cc(F)c(CN4CCN(Cc5ccc6c(c5)OCCO6)CC4)c3F)C2=O)C(=O)N1` (stereo not drawn) [Compound 76, 3-(5-((4-((2,3-dihydrobenzo[b][1,4]dioxin-6-yl)methyl)piperazin-1-yl)methyl)-4,6-difluoro-1-oxoisoindolin-2-yl)piperidine-2,6-dione], the DC50 in test [1] was found to be 0.00489 µM; on Helios [2], 0.0063 µM. The Dmax in test [1] (setting [4]) is 88.8%. At Helios [3], the “Helios Jurkat Hibit YMax” value is 72.1901%.

As to `O=C1CCC(N2Cc3c(cc(F)c(C4(O)CCN(Cc5ccc(C(F)(F)F)cc5Br)CC4)c3F)C2=O)C(=O)N1` (stereo not drawn) [Compound 31, 3-(5-(1-(2-bromo-4-(trifluoromethyl)benzyl)-4-hydroxypiperidin-4-yl)-4,6-difluoro-1-oxoisoindolin-2-yl)piperidine-2,6-dione], the figures for the DC50 (in test [1]; on Helios [2]) were 0.014 µM and at least 10 µM, respectively. Also, in test [1] (setting [4]), the Dmax turned out to be 82.8%.
